In patent US4686220A, “Substituted 2-[b-substituted-amino)-ethylamino]-1,4-naphthalenediones for treating asthma, allergic diseases and inflammation in warm-blooded animals” (American Cyanamid Company, priority 1985, dated 1987):
Structures can show the parent of a compound that is named as a salt. Where two headings read alike, the source gives them in different places.

Biological target: T1, Neutrophil Lipoxygenase (Cavia porcellus, UniProt A0A286X958)
T1 construct: endogenous in cells; host or cells: guinea pig peritoneal neutrophils
T1 sequence (A0A286X958 1-674): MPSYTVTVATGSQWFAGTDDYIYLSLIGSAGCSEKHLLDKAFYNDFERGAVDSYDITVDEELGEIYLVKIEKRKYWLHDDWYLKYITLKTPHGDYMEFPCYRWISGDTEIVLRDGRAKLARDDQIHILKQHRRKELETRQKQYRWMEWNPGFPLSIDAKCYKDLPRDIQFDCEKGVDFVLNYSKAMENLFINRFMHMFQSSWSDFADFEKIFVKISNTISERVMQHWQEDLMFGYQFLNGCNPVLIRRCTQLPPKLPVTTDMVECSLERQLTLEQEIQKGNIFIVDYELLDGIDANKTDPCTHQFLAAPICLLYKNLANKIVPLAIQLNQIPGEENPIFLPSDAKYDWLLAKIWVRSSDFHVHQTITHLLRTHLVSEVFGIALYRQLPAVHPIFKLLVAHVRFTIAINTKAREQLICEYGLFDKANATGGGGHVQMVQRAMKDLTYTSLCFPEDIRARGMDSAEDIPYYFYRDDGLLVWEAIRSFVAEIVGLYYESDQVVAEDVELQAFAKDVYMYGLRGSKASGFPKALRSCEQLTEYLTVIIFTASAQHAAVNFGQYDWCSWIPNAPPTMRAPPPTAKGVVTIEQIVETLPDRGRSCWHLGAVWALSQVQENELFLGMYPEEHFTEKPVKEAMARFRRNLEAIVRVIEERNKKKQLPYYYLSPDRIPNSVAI
Assay: Inhibition of Neutrophil Lipoxygenase from Immunologically Stimulated Guinea Pig Neutrophiles (LTB4 and 5-HETE)
Assay type: cell-based
Conditions: 10 μg/ml, 100 μM arachidonic acid and 20 μM A23187, the lower the percentage, the more active
Method: In this assay 3×10^7 peritoneal neutrophils derived from guinea pigs were incubated at 37° C. in Dulbeccos buffer containing 50 mM tris buffer (pH 7.4). Five minutes before the addition of 100 μM arachidonic acid and 20 μM calcium ionophore (A23187), control vehicle or the test compounds were added to the neutrophils at a concentration of 10 μg/ml. Three minutes after the addition of arachidonic acid and calcium ionophore the total lipid was partitioned into chloroform after adjusting the pH to 3 with citric acid and the addition of equal parts of methanol and chloroform. The 5-HETE and LTB4 were resolved by HPLC using a 5 μM, 4×25 cm octadecyl silica column (IBM Instruments) with 70-80% methanol in water adjusted to pH 3.0 with acetic acid. As the mobile phase was pumped at 1.0 ml/minute, LTB4 and 5-HETE were detected by absorbance at 270 and 236 nm, respectively. LTB4 and 5-HETE were quantitated by comparison with the control and the results were expressed as a percent of control.

| remaining activity at 10 µg/mL (read-out: 5-HETE, % of Control) | remaining activity at 10 µg/mL (read-out: LTB4, % of Control) | SMILES |
| --- | --- | --- |
| 0% | 0% | O=C1C(Cl)=C(N2CCN(c3ccc4ccccc4n3)CC2)C(=O)c2ccccc21 [Example 10, 2-chloro-3-[4-(2-quinolinyl)-1-piperazinyl]-1,4-naphthalenedione, hydrochloride] |
| 0% | 0% | O=C1C(Cl)=C(N2CCN(Cc3ccc4c(c3)OCO4)CC2)C(=O)c2ccccc21 [Example 11, 2-[4-(1,3-benzodioxol-5-ylmethyl)-1-piperazinyl]-3-chloro-1,4-naphthalenedione, hydrochloride] |
| 19.9% | 22.2% | O=C1C(Cl)=C(N2CCN(C(=O)Nc3ccccc3Cl)CC2)C(=O)c2ccccc21 [Example 29, 4-(3-Chloro-1,4-dihydro-1,4-dioxo-2-naphthalenyl)-N-(2-chlorophenyl)-1-piperazinecarboxamide] |
| 2% | 0% | O=C1C(Cl)=C(N2CCN(C(=O)Nc3ccccc3F)CC2)C(=O)c2ccccc21 [Example 30, 4-(3-chloro-1,4-dihydro-1,4-dioxo-2-naphthalenyl)-N-(2-fluorophenyl)-1-piperazinecarboxamide] |
| 0% | – | O=C1C(Cl)=C(N2CCN(C(=O)Nc3cccc(C(F)(F)F)c3)CC2)C(=O)c2ccccc21 [Example 31, 4-(3-chloro-1,4-dihydro-1,4-dioxo-2-naphthalenyl)-N-[3-(trifluoromethyl)phenyl]-1-piperazinecarboxamide] |
| 1.4% | – | O=C1C(Cl)=C(N2CCN(C(=O)Nc3ccc(Cl)cc3)CC2)C(=O)c2ccccc21 [Example 32, 4-(3-chloro-1,4-dihydro-1,4-dioxo-2-naphthalenyl)-N-(4-chlorophenyl)-1-piperazinecarboxamide] |
| 13.7% | 23.2% | CCCCc1ccc(C(=O)N2CCN(C3=C(Cl)C(=O)c4ccccc4C3=O)CC2)cc1 [Example 35, 1-(4-butylbenzoyl)-4-(3-chloro-1,4-dihydro-1,4-dioxo-2-naphthalenyl)piperazine] |
| 8.8% | – | CC1=C(N2CCN(C(=O)Nc3ccc(Cl)cc3)CC2)C(=O)c2ccccc2C1=O [Example 54, N-(4-Chlorophenyl)-4-(1,4-dihydro-3-methyl-1,4-dioxo-2-naphthalenyl)-1-piperazinecarboxamide] |
| 19.6% | 13.5% | O=C1C(Cl)=C(N2CCN(c3nc4ccccc4o3)CC2)C(=O)c2ccccc21 [Example 55, 2-[4-(2-Benzoxazolyl)-1-piperazinyl]-3-chloro-1,4-naphthalenedione] |

Continued, compound first:

| SMILES | remaining activity at 10 µg/mL (read-out: 5-HETE, % of Control) | remaining activity at 10 µg/mL (read-out: LTB4, % of Control) |
| --- | --- | --- |
| O=C1C(Cl)=C(N2CCN(c3ncccn3)CC2)C(=O)c2ccccc21 [Example 12, 2-chloro-3-[4-(2-pyrimidinyl)-1-piperazinyl]-1,4-naphthalenedione] | 34.3% | – |
| CC(=O)NC1=C(N2CCN(c3nc4ccccc4s3)CC2)C(=O)c2ccccc2C1=O [Example 23, N-[3-[4-(2-benzothiazolyl)-1-piperazinyl]-1,4-dihydro-1,4-dioxo-2-naphthalenyl]acetamide] | 0% | 0% |
| CC(=O)NC1=C(N2CCN(c3cccc(C(F)(F)F)c3)CC2)C(=O)c2ccccc2C1=O [Example 28, N-[1,4-dihydro-1,4-dioxo-3-[4-[3-(trifluoromethyl)phenyl]-1-piperazinyl]-2-naphthalenyl]acetamide] | 0.3% | – |
| CCOC(=O)N1CCN(C2=C(C)C(=O)c3ccccc3C2=O)CC1 [Example 41, 4-(1,4-Dihydro-3-methyl-1,4-dioxo-2-naphthalenyl)-1-piperazinecarboxylic acid, ethyl ester] | 2.2% | – |
| CC1=C(N2CCN(c3nc4ccccc4s3)CC2)C(=O)c2ccccc2C1=O [Example 42, 2-[4-(2-benzothiazolyl)-1-piperazinyl]-3-methyl-1,4-naphthalenedione] | 0.8% | 20.8% |
| CC1=C(N2CCN(Cc3ccccc3)CC2)C(=O)c2ccccc2C1=O [Example 43, 2-methyl-3-[4-(phenylmethyl)-1-piperazinyl]-1,4-naphthalenedione] | 0.7% | 4.8% |
| CC1=C(N2CCN(c3ccccn3)CC2)C(=O)c2ccccc2C1=O [Example 44, 2-methyl-3-[4-(2-pyridinyl)-1-piperazinyl]-1,4-naphthalenedione] | 0% | 0% |
| CC1=C(N2CCN(c3cccc(C(F)(F)F)c3)CC2)C(=O)c2ccccc2C1=O [Example 45, 2-methyl-3-[4-[3-(trifluoromethyl)phenyl]-1-piperazinyl]-1,4-naphthalenedione] | 0% | – |
| O=C1C(Cl)=C(N2CCCN(c3nc4ccccc4s3)CC2)C(=O)c2ccccc21 [Example 52, 2-[4-(2-Benzothiazolyl)hexahydro-1H-diazepin-1-yl]-3-chloro-1,4-naphthalenedione] | 1.1% | – |
| CC1CN(C2=C(Cl)C(=O)c3ccccc3C2=O)CCN1C(=O)Nc1cccc(Cl)c1 (stereo not drawn) [Example 58, 4-(3-Chloro-1,4-dihydro-1,4-dioxo-2-naphthalenyl)-N-(3-chlorophenyl)-2-methyl-1-piperazinecarboxamide] | 25.7% | 15.2% |
